Laboratory results from PubChem BioAssay AID2060512 (Molecular Pharmacology Branch, DTP, NCI, 2025).

Test system: 186277-243-T-J2-PDC complex spheroid viability
Test: Anticancer human tumor 186277-243-T-J2-PDC patient-derived colon adenocarcinoma cell line growth inhibition [GQUAD]
Settings: for IC50: curve of first compound; for viability, T/C: stronger effect = lower value
Text: DNA G-quadruplex Stabilizer Agents in Combinations in Complex Spheroids
A high-throughput screen of multi-cell type tumor spheroids was designed to identify active combinations of DNA G-quadruplex stabilizer agents and targeted small molecules. Complex spheroids include a stromal component modeled by human endothelial cells (HUVEC) and fibroblasts modeled by human mesenchymal stem cells (MSCs). The concentration ranges selected for each drug and investigational agent were based upon clinically achievable concentrations if the clinical Cmax of the agent was known.
Compounds. The drugs and investigational agents: pidnarulex (CX-5461; NSC782164), APTO-253 (NSC789042), BRACO-19 (NSC847499), peposertib (NSC802822), ceralasertib (NSC780249), elimusertib (NSC800525), camonsertib (NSC841442), AZD-1390 (NSC803789), olaparib (NSC753686), talazoparib (NSC767125), ART-558 (NSC835418), sotorasib (NSC818433), MRTX-1133 (NSC836407), SN-38 (NSC673596), topotecan (NSC609699), etoposide (NSC141540), doxorubicin (NSC123127), gemcitabine (NSC613327), 5-fluorouracil (NSC19893), paclitaxel (NSC125973), vemurafenib (NSC761431), panobinostat (NSC761190), R-306465 (JNJ-16241199; NSC773264), adavosertib (NSC754352), TP-3654 (NSC805149), carboplatin (NSC241240), KSQ-4279 (NSC840948), and staurosporine (NSC755774) were obtained from the National Cancer Institute (NCI) Developmental Therapeutics Program Chemical Repository (34). The FDA-approved anticancer drug set is available from the NCI Developmental Therapeutics Program. […] The stock solutions were prepared in dimethyl sulfoxide (DMSO, Sigma-Aldrich, St. Louis, MO, cat. D2650) at 800-fold the tested concentration and stored at -70 degrees C prior to their use. All drugs and investigational agents were tested over a range starting from a high concentration at or near the clinical Cmax and decreasing in half-log increments. If the clinical Cmax for an agent had not been determined, the highest concentration tested was 10 microM.
2.3 Cell Culture. All cells were maintained in an incubator at 37 degrees C and 5% CO2 with 95% humidity. The PDC lines were cultured according to standard operating procedures established by the NCI PDMR. All PDCs were thawed and cultured in Matrigel-coated flasks prepared with a working solution of 1X Ham's F-12 nutrient mix, without supplementation (Invitrogen, cat. 11765054), 100 U/mL penicillin-streptomycin (Invitrogen, cat. 15140122), and 2.5% Matrigel (Corning Inc., cat. 354248) for the first three passages. The 857933-349-R-J2-PDC line was cultured in 6C/Colon 1B media, which includes advanced DMEM/F-12 (Thermo Fisher Scientific, cat. 12634028), 10 mM HEPES (Thermo Fisher Scientific, cat. 15630080), 1X GlutaMAX supplement (Thermo Fisher Scientific, cat. 35050061), 0.1 mg/mL primocin (InvivoGen, cat. ant-pm-2), 10% defined fetal bovine serum, heat inactivated (HyClone Laboratories Inc., cat. SH30070.03HI), 50% L-WRN conditioned media (ATCC, cat. CRL-3276), 1.25 mM N-Acetyl-L-cysteine (Sigma-Aldrich, cat. A9165), 10 mM nicotinamide (Sigma-Aldrich, cat. N0636), 1X B-27 supplement (Thermo Fisher Scientific, cat. 17504044), 1X N-2 supplement (Thermo Fisher Scientific, cat. 17502048), 10 microM Y-27632 dihydrochloride (Tocris Bioscience, cat. 1254), and 50 ng/mL human EGF recombinant protein (Thermo Fisher Scientific, cat. PHG0311). The 485176-168-R4-J1-PDC line was cultured in Panc media, which includes all 6C/Colon 1B media components plus 100 ng/mL human FGF-10 (Thermo Fisher Scientific, cat. 100-26), 500 nM SB-431542 (Selleckchem, cat. S1067), and gastrin (Tocris, cat. 3006).
[…]

[1] = second compound 0.0316 µM, first compound 0.0316 µM
[2] = second compound 0.0316 µM, first compound 0.1 µM
[3] = second compound 0.0316 µM, first compound 0.316 µM
[4] = second compound 0.0316 µM, first compound 1 µM
[5] = second compound 0.0316 µM, first compound 3.16 µM
[6] = second compound 0.0316 µM, first compound 10 µM
[7] = second compound 0.1 µM, first compound 0.0316 µM
[8] = second compound 0.1 µM, first compound 0.1 µM
[9] = second compound 0.1 µM, first compound 0.316 µM
[10] = second compound 0.1 µM, first compound 1 µM
[11] = second compound 0.1 µM, first compound 3.16 µM
[12] = second compound 0.1 µM, first compound 10 µM
[13] = second compound 0.316 µM, first compound 0.0316 µM
[14] = second compound 0.316 µM, first compound 0.1 µM
[15] = second compound 0.316 µM, first compound 0.316 µM
[16] = second compound 0.316 µM, first compound 1 µM
[17] = second compound 0.316 µM, first compound 3.16 µM
[18] = second compound 0.316 µM, first compound 10 µM
[19] = second compound 1 µM, first compound 0.0316 µM
[20] = second compound 1 µM, first compound 0.1 µM
[21] = second compound 1 µM, first compound 0.316 µM
[22] = second compound 1 µM, first compound 1 µM
[23] = second compound 1 µM, first compound 3.16 µM
[24] = second compound 1 µM, first compound 10 µM
[25] = second compound 3.16 µM, first compound 0.0316 µM
[26] = second compound 3.16 µM, first compound 0.1 µM
[27] = second compound 3.16 µM, first compound 0.316 µM
[28] = second compound 3.16 µM, first compound 1 µM
[29] = second compound 3.16 µM, first compound 3.16 µM
[30] = second compound 3.16 µM, first compound 10 µM
[31] = second compound 10 µM, first compound 0.0316 µM
[32] = second compound 10 µM, first compound 0.1 µM
[33] = second compound 10 µM, first compound 0.316 µM
[34] = second compound 10 µM, first compound 1 µM
[35] = second compound 10 µM, first compound 3.16 µM
[36] = second compound 10 µM, first compound 10 µM
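Note: spheroids exposed to drugs for 7 days.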
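Throughout, for viability, T/C: 100% = DMSO vehicle control viability.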

Q: What does the source list for O=C(c1cc(Cc2n[nH]c(=O)c3ccccc23)ccc1F)N1CCN(C(=O)C2CC2)CC1 + Cc1[nH]c2ccc(F)cc2c1-c1nc2c3cccnc3c3ncccc3c2[nH]1?
A: IC50 (second compound 0.0316 µM): > 10000 nM; IC50 (second compound 0.1 µM): > 10000 nM; IC50 (second compound 0.316 µM): > 10000 nM; IC50 (second compound 1 µM): > 10000 nM; IC50 (second compound 3.16 µM): > 10000 nM; IC50 (second compound 10 µM): > 10000 nM; viability, T/C [1]: 110%; viability, T/C [2]: 91.6%; viability, T/C [3]: 103%; viability, T/C [4]: 90.9%; viability, T/C [5]: 98.8%; viability, T/C [6]: 54.9%; viability, T/C [7]: 93.2%; viability, T/C [8]: 106%; viability, T/C [9]: 97%; viability, T/C [10]: 100%; viability, T/C [11]: 82.3%; viability, T/C [12]: 66.2%; viability, T/C [13]: 98.1%; viability, T/C [14]: 94.5%; viability, T/C [15]: 91.3%; viability, T/C [16]: 92.6%; viability, T/C [17]: 89.9%; viability, T/C [18]: 53.8%; viability, T/C [19]: 79.3%; viability, T/C [20]: 99.4%; viability, T/C [21]: 97.4%; viability, T/C [22]: 86%; viability, T/C [23]: 89.2%; viability, T/C [24]: 62.1%; viability, T/C [25]: 99%; viability, T/C [26]: 101%; viability, T/C [27]: 113%; viability, T/C [28]: 105%; viability, T/C [29]: 93.1%; viability, T/C [30]: 68.3%; viability, T/C [31]: 89%; viability, T/C [32]: 102%; viability, T/C [33]: 114%; viability, T/C [34]: 87.6%; viability, T/C [35]: 86.5%; viability, T/C [36]: 59.2%

Q: With CC1COCCN1c1cc(C2(S(C)(=N)=O)CC2)nc(-c2ccnc3[nH]ccc23)n1 (centres undefined) + Cc1cnc(CNC(=O)c2c(=O)c3ccc(N4CCCN(C)CC4)nc3n3c2sc2ccccc23)cn1 as the molecule, how does the IC50 (second compound 0.0316 µM) read?
A: 787 nM

Q: What about the IC50 (second compound 0.1 µM) of the same molecule?
A: 579 nM

Q: What about the IC50 (second compound 0.316 µM) of the same molecule?
A: 885 nM

Q: And the IC50 (second compound 1 µM)?
A: 564 nM

Q: What about the IC50 (second compound 3.16 µM) of the same molecule?
A: < 31.6 nM

Q: And the IC50 (second compound 10 µM)?
A: 65.4 nM

Q: And the viability, T/C [1]?
A: 107%

Q: What about the viability, T/C [2] of the same molecule?
A: 92.4%

Q: And the viability, T/C [3]?
A: 89.8%

Q: And the viability, T/C [4]?
A: 39.4%

Q: What about the viability, T/C [5] of the same molecule?
A: 13.1%

Q: What about the viability, T/C [6] of the same molecule?
A: 8.67%

Q: And the viability, T/C [7]?
A: 101%

Q: What about the viability, T/C [8] of the same molecule?
A: 73.4%

Q: And the viability, T/C [9]?
A: 68.2%

Q: And the viability, T/C [10]?
A: 39.8%

Q: And the viability, T/C [11]?
A: 18.4%

Q: What about the viability, T/C [12] of the same molecule?
A: 9.76%

Q: What about the viability, T/C [13] of the same molecule?
A: 73.3%

Q: What about the viability, T/C [14] of the same molecule?
A: 83.1%

Q: What about the viability, T/C [15] of the same molecule?
A: 66.7%

Q: And the viability, T/C [16]?
A: 47.5%

Q: What about the viability, T/C [17] of the same molecule?
A: 27.2%

Q: What about the viability, T/C [18] of the same molecule?
A: 17%

Q: What about the viability, T/C [19] of the same molecule?
A: 46.2%

Q: And the viability, T/C [20]?
A: 64.6%

Q: And the viability, T/C [21]?
A: 64.6%

Q: And the viability, T/C [22]?
A: 41.6%

Q: And the viability, T/C [23]?
A: 31.6%

Q: What about the viability, T/C [24] of the same molecule?
A: 21.3%

Q: What about the viability, T/C [25] of the same molecule?
A: 41.8%

Q: What about the viability, T/C [26] of the same molecule?
A: 48.6%

Q: And the viability, T/C [27]?
A: 50.6%

Q: What about the viability, T/C [28] of the same molecule?
A: 44.5%

Q: What about the viability, T/C [29] of the same molecule?
A: 39.2%

Q: And the viability, T/C [30]?
A: 19.4%

Q: And the viability, T/C [31]?
A: 50.6%

Q: And the viability, T/C [32]?
A: 52%

Q: What about the viability, T/C [33] of the same molecule?
A: 43.2%

Q: What about the viability, T/C [34] of the same molecule?
A: 37%

Q: And the viability, T/C [35]?
A: 31.6%

Q: What about the viability, T/C [36] of the same molecule?
A: 22%
